Consider 50 molecules from patent US20260132127A1, “NOVEL SPIRO COMPOUND” (MITSUBISHI TANABE PHARMA CORPORATION, priority 2021, published 2026).

This experiment has as its target T1, human TRH-DE (Homo sapiens, UniProt Q9UKU6).
T1 construct: expressed in transfected cells; host or cells: Expi 293 cells (transient expression), membrane fraction
T1 sequence (Q9UKU6 1-1069): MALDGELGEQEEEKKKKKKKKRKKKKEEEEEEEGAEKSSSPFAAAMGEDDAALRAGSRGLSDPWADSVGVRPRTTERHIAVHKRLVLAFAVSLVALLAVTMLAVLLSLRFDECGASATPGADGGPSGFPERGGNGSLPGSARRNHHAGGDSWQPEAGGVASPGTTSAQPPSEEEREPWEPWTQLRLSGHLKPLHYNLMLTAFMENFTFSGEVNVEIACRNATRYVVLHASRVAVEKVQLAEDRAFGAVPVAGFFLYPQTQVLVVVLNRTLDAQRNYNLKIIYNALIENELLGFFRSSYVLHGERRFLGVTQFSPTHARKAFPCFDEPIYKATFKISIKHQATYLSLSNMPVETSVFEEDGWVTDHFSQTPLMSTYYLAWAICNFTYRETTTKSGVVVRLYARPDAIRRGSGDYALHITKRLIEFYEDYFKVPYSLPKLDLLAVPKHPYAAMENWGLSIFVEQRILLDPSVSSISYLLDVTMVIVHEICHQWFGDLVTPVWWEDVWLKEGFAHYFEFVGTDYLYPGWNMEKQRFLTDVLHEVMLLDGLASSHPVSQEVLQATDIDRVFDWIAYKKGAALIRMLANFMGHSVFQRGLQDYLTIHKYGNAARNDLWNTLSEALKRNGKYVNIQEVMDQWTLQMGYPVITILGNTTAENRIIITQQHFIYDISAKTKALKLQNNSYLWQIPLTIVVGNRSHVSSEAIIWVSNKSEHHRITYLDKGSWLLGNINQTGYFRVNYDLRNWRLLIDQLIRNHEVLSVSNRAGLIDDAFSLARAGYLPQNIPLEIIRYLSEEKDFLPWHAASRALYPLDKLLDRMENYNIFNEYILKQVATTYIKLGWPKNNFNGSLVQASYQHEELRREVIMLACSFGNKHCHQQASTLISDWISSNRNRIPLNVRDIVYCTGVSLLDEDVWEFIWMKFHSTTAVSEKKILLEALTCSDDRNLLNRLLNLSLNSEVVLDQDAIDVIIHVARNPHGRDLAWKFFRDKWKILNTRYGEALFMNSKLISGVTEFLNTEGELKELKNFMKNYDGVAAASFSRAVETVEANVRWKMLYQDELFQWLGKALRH
Description: TRH-DE inhibition test (RapidFire MS measurement of product Cyclo (His-Pro)). Format: biochemical. As to conditions: membrane fraction of Expi 293 cells expressing human TRH-DE; 10 μM TRH substrate; room temperature, 2 hours; 16-point concentration test. An outline of the steps:
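Inhibition derived from product/internal-standard ratios of Cyclo(His-Pro), quantified by RapidFire triple-quadrupole MS after acetonitrile:methanol quench, with IC50 fitted over 16 concentrations. Enzyme source: membranes of Expi 293 cells transiently expressing human TRH-DE, 4 μg/ml, pH 7.4 phosphate buffer. Incubation with 10 μM substrate ran 2 h at room temperature.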
`COc1nc2c(cc1F)C(=O)N(C1CC3(C1)CN(S(=O)(=O)c1ccccc1F)C3)[C@H](C)CO2` [Example 167, (3R)-7-fluoro-4-[2-(2-fluorophenyl)sulfonyl-2-azaspiro[3.3]heptan-6-yl]-8-methoxy-3-methyl-2,3-dihydropyrido[3,2-f][1,4]oxazepin-5-one] came in with an IC50 of 16 nM.
Take `C[C@@H]1COc2nc(N3CC[C@H](F)C3)ncc2C(=O)N1C1CC2(C1)CN(S(=O)(=O)c1ccccc1F)C2` [Example 169]: inhibition was half-maximal at 1 nM (IC50).
Regarding `C[C@@H]1COc2c(cnn2C)C(=O)N1C1CC2(C1)CN(S(=O)(=O)c1ccccc1F)C2` [Example 170, (6R)-5-[2-(2-fluorophenyl)sulfonyl-2-azaspiro[3.3]heptan-6-yl]-1,6-dimethyl-6,7-dihydropyrazolo[4,3-f][1,4]oxazepin-4-one], the IC50 stood at 7 nM.
Regarding `C[C@@H]1COc2ncc(Br)cc2C(=O)N1C1CC2(C1)CN(S(=O)(=O)c1ccccc1F)C2` [Example 171], half-maximal inhibition (IC50) was put at 7 nM.
For the molecule `C[C@@H]1CCN2CCOC[C@@H]2C(=O)N1C1CC2(C1)CN(S(=O)(=O)c1ccccc1F)C2` [Example 172], 110 nM corresponded to half-maximal inhibition (IC50).
`Cc1nc2c(s1)C(=O)N(C1CC3(C1)CN(S(=O)(=O)c1ccccc1F)C3)[C@H](C)CO2` [Example 175] registered a half-inhibitory concentration (IC50) of 12 nM.
In the case of `C[C@@H]1COc2nc(C(F)F)sc2C(=O)N1C1CC2(C1)CN(S(=O)(=O)c1ccccc1F)C2` [Example 176] it was 13 nM.
As for `C[C@@H]1COc2nc(C(C)(F)F)sc2C(=O)N1C1CC2(C1)CN(S(=O)(=O)c1ccccc1F)C2` [Example 178], the IC50 was 12 nM.
In the case of `C[C@@H]1COc2nc(C3CC3)sc2C(=O)N1C1CC2(C1)CN(S(=O)(=O)c1ccccc1F)C2` [Example 180], the IC50 was determined as 4 nM.
As for `C[C@@H]1COc2nc(C3(F)CC3)sc2C(=O)N1C1CC2(C1)CN(S(=O)(=O)c1ccccc1F)C2` [Example 181], the IC50 was 6 nM.
As for `C[C@H]1COc2nc(C3(F)CC3)sc2C(=O)N1C1CC2(C1)CN(S(=O)(=O)c1ccccc1F)C2` [Example 182], the figure is 154 nM; as for `C[C@@H]1COc2nc(C3(C(F)(F)F)CC3)sc2C(=O)N1C1CC2(C1)CN(S(=O)(=O)c1ccccc1F)C2` [Example 183], 5 nM.
As for `Cc1cc2n(n1)CC[C@@H](C)N(C1CC3(C1)CN(S(=O)(=O)c1ccccc1F)C3)C2=O` [Example 184], the figure is 16 nM; as for `Cc1nn2c(c1C)C(=O)N(C1CC3(C1)CN(S(=O)(=O)c1ccccc1F)C3)[C@H](C)CC2` [Example 185], 24 nM.
In the case of `C[C@@H]1CCn2nc(Cl)cc2C(=O)N1C1CC2(C1)CN(S(=O)(=O)c1ccccc1F)C2` [Example 186] it was 21 nM; in that of `C[C@@H]1CCn2nc(C(C)(F)F)cc2C(=O)N1C1CC2(C1)CN(S(=O)(=O)c1ccccc1F)C2` [Example 187], 20 nM.
In turn, `C[C@@H]1CCn2nc(C3CC3)cc2C(=O)N1C1CC2(C1)CN(S(=O)(=O)c1ccccc1F)C2` [Example 188] had an IC50 of 8 nM.
In turn, `C[C@H]1CCn2nc(C3CC3)cc2C(=O)N1C1CC2(C1)CN(S(=O)(=O)c1ccccc1F)C2` [Example 189] had an IC50 of 68 nM.
For the molecule `C[C@@H]1CCn2nc(C3(F)CC3)cc2C(=O)N1C1CC2(C1)CN(S(=O)(=O)c1ccccc1F)C2` [Example 190], the IC50 stood at 11 nM. Compared with the last molecule, the IC50 is about 6.2-fold lower.
Molecule `C[C@H]1CCn2nc(C3(F)CC3)cc2C(=O)N1C1CC2(C1)CN(S(=O)(=O)c1ccccc1F)C2` [Example 191] yielded an IC50 of 86 nM.
With `C[C@@H]1CCn2nc(C3(C(F)(F)F)CC3)cc2C(=O)N1C1CC2(C1)CN(S(=O)(=O)c1ccccc1F)C2` [Example 192], the IC50 came to 9 nM.
For `C[C@@H]1CCn2nc(C(F)(F)F)cc2C(=O)N1C1CC2(C1)CN(S(=O)(=O)c1ccccc1F)C2` [Example 193], the midpoint of inhibition, the IC50, lay at 25 nM. This IC50 lies about 2.8-fold higher than the previous one.
As for `C[C@@H]1CCn2ncc(Cl)c2C(=O)N1C1CC2(C1)CN(S(=O)(=O)c1ccccc1F)C2` [Example 194], the figure is 36 nM; as for `C[C@@H]1CCn2ncc(Br)c2C(=O)N1C1CC2(C1)CN(S(=O)(=O)c1ccccc1F)C2` [Example 195], 35 nM.
`C[C@@H]1CCn2nc(F)c(Br)c2C(=O)N1C1CC2(C1)CN(S(=O)(=O)c1ccccc1F)C2` [Example 196] yielded an IC50 of 15 nM.
On to `C[C@@H]1CCn2nc(C3CC3)c(F)c2C(=O)N1C1CC2(C1)CN(S(=O)(=O)c1ccccc1F)C2` [Example 197], for which the IC50 came out at 13 nM.
As for `C[C@@H]1CCn2nc3c(c2C(=O)N1C1CC2(C1)CN(S(=O)(=O)c1ccccc1F)C2)CCC3` [Example 198], the figure is 14 nM; as for `CCn1ncc2c1OC[C@@H](C)N(C1CC3(C1)CN(S(=O)(=O)c1ccccc1F)C3)C2=O` [Example 199], 21 nM.
Molecule `C[C@@H]1COc2c(cnn2CC(F)F)C(=O)N1C1CC2(C1)CN(S(=O)(=O)c1ccccc1F)C2` [Example 200] yielded an IC50 of 19 nM.
As for `C[C@@H]1COc2c(cnn2CC(F)(F)F)C(=O)N1C1CC2(C1)CN(S(=O)(=O)c1ccccc1F)C2` [Example 201], the figure is 20 nM; as for `C[C@@H]1COc2c(cnn2C2CC2)C(=O)N1C1CC2(C1)CN(S(=O)(=O)c1ccccc1F)C2` [Example 202], 19 nM; as for `C[C@@H]1COc2c(cnn2C(C)(C)C)C(=O)N1C1CC2(C1)CN(S(=O)(=O)c1ccccc1F)C2` [Example 203], 34 nM.
`C[C@@H]1COc2c(cnn2-c2ccccc2)C(=O)N1C1CC2(C1)CN(S(=O)(=O)c1ccccc1F)C2` [Example 204]: inhibition was half-maximal at 34 nM (IC50). This lies in the double-digit nanomolar range.
As for `Cc1nn(C)c2c1C(=O)N(C1CC3(C1)CN(S(=O)(=O)c1ccccc1F)C3)[C@H](C)CO2` [Example 205], the figure is 14 nM.
Regarding `C[C@@H]1COc2c(c(C3CC3)nn2C)C(=O)N1C1CC2(C1)CN(S(=O)(=O)c1ccccc1F)C2` [Example 206], the IC50 stood at 5 nM. This IC50 is about 2.8-fold lower than that of the molecule before.
As for `Cc1nn(C2CC2)c2c1C(=O)N(C1CC3(C1)CN(S(=O)(=O)c1ccccc1F)C3)[C@H](C)CO2` [Example 207], the figure is 11 nM; as for `C[C@@H]1COc2c(c(C3CC3)nn2C2CC2)C(=O)N1C1CC2(C1)CN(S(=O)(=O)c1ccccc1F)C2` [Example 208], 14 nM.
In the case of `C[C@@H]1COc2nn(C)cc2C(=O)N1C1CC2(C1)CN(S(=O)(=O)c1ccccc1F)C2` [Example 209] it was 22 nM; in that of `C[C@@H]1COc2nn(C3CC3)cc2C(=O)N1C1CC2(C1)CN(S(=O)(=O)c1ccccc1F)C2` [Example 210], 21 nM.
As for `Cc1c2c(nn1C)OC[C@@H](C)N(C1CC3(C1)CN(S(=O)(=O)c1ccccc1F)C3)C2=O` [Example 211], the figure is 13 nM.
The molecule `C[C@@H]1COc2nn(C)c(Br)c2C(=O)N1C1CC2(C1)CN(S(=O)(=O)c1ccccc1F)C2` [Example 212] showed an IC50 of 23 nM.
In turn, `C[C@@H]1CCn2c(cnc2Br)C(=O)N1C1CC2(C1)CN(S(=O)(=O)c1ccccc1F)C2` [Example 214] registered an IC50 of 11 nM.
In the case of `C[C@@H]1CCn2cnc(Br)c2C(=O)N1C1CC2(C1)CN(S(=O)(=O)c1ccccc1F)C2` [Example 215] it was 26 nM; in that of `Cc1nc(Br)n2c1C(=O)N(C1CC3(C1)CN(S(=O)(=O)c1ccccc1F)C3)[C@H](C)CC2` [Example 216], 46 nM.
In the case of `C[C@@H]1COc2conc2C(=O)N1C1CC2(C1)CN(S(=O)(=O)c1ccccc1F)C2` [Example 217] it was 35 nM; in that of `Cc1onc2c1C(=O)N(C1CC3(C1)CN(S(=O)(=O)c1ccccc1F)C3)[C@H](C)CO2` [Example 218], 37 nM; in that of `C[C@@H]1COc2noc(C(C)(C)C)c2C(=O)N1C1CC2(C1)CN(S(=O)(=O)c1ccccc1F)C2` [Example 219], 38 nM.
In the case of `C[C@@H]1COc2noc(C3CC3)c2C(=O)N1C1CC2(C1)CN(S(=O)(=O)c1ccccc1F)C2` [Example 220] it was 12 nM; in that of `C[C@@H]1CCN2CCC[C@H]2C(=O)N1C1CC2(C1)CN(S(=O)(=O)c1ccccc1F)C2` [Example 221], 988 nM.
For `C[C@@H]1CCN2CCC[C@H]2C(=O)N1C1CC2(C1)CN(S(=O)(=O)c1ccccc1F)C2` [Example 222], the IC50 amounted to 449 nM.
